How the values were obtained:
[1] = system: subjects with moderate to severe Crohn's disease (CDAI score of 220-450); assay: Phase IIa clinical trial of oral laquinimod in active moderate to severe Crohn's disease; format: in vivo, human; conditions: for dependence on steroids: moderate to severe Crohn's disease; for C-Reactive Protein level / clinical remission / clinical response / disease progression and/or disease complication / fecal calprotein level / number of open draining fistulas / symptoms of Crohn's disease: moderate to severe Crohn's disease (CDAI 220-450)
Protocol: Overall up to ˜180 Crohn's disease patients are enrolled. […] The capsules were prepared using a blend proportional to the 0.6 mg capsules described in PCT International Application No. PCT/US2007/013721 (WO 2007/146248). The capsules were prepared according to the method described in PCT International Application No. PCT/US2007/013721 (WO 2007/146248), which is hereby incorporated by reference into this application. A loading dose regimen of double the maintenance/intended dose is given during the first two days of study drug treatment. Thereafter, starting on day 3, the daily maintenance/intended dose is administered. Subjects are required to maintain CDAI diary cards for each day of the screening period and, if randomized, on each day of the treatment and follow-up period. The scores obtained from the seven consecutive diaries completed prior to the baseline visit and to each of weeks 1, 2, 4, 6, 8 and 12 contribute to a total CDAI score at each of the time points. Moderate to severe Crohn's disease (CD) subjects as determined by a Crohn's Disease Activity Index (CDAI) score of 220-450 (inclusive). […] Each dose is studied sequentially in a distinct cohort. Scheduled in-clinic visits are conducted at screening, baseline and at weeks 1, 2, 4, 6 and 8. […] Subjects who early-discontinues study drug prior to visit week 8 go to follow-up termination visit within 4 weeks (28 days) of study drug discontinuation. A loading dose regimen of the study drug is given during the first two days of treatment (day 1/baseline and thereafter). The first loading dose of the study is administered at the site. The loading dose is double the intended dose for the first two days and is administered twice daily (BID) with 12 hour interval between dosing. Thereafter, starting on day 3, the dosing regimen consists of the intended dose once daily (QD) (see Table 1): • 1. Day 1 (Baseline): loading dose of the drug (intended dose at 0 hour, at the site and intended dose at 12 hours). Total dose is twice the intended dose. • 2. Day 2: loading dose of the study drug (intended dose at 0 hour and intended dose at 12 hours). Total dose is twice the intended dose. • 3. Day 3: Intended/maintenance dose of the study drug. […] Proportion of subjects in clinical remission (total CDAI score <150) at weeks 4, 6, 8 and 12. • 2. Proportion of subjects who respond to treatment (decrease from baseline of at least 100 points in CDAI score ore remission) at week 4, 6, 8 and 12. • 3. Time to remission. • 4. Time to response. • 5. C-Reactive Protein (CRP) change from baseline at weeks 2, 4, 6, 8 and 12. • 6. Fecal calprotectin change from baseline to weeks 2, 4, 6, 8 and 12. • 7. Proportion of subjects with a decrease from baseline of at least 50% in the number of open draining fistulas. Safety/Tolerability • 1. Adverse events (AEs). • 2. Clinical laboratory values. • 3. Vital signs. • 4. ECG. • 5. Proportion of subjects who prematurely discontinue treatment. • 6. Proportion of subjects who prematurely discontinue treatment due to AEs. • 7. Time to premature treatment discontinuation. • 8. Time to premature treatment discontinuation due to AEs. Determination of the Highest Tolerable Dose

[2] = previous pharmacokinetic studies of laquinimod (time to steady state, oral bioavailability); format: in vivo; conditions: with loading dose regimen (double the intended dose for the first two days)
Source text: In order to decrease thee time to steady state and potentially decrease time to response, a loading dose regimen described below is used to allow steady state levels to be reached in approximately 6-7 days.

[3] = background statement; cited from earlier work

SMILES: CCN(C(=O)c1c(O)c2c(Cl)cccc2n(C)c1=O)c1ccccc1 [laquinimod]
- dependence on steroids ([1]; 0.5 mg/day oral): lowers
- C-Reactive Protein level ([1]; 0.5 mg/day oral): lowers
- clinical remission ([1]; 0.5 mg/day oral): induces and/or maintains
- clinical response ([1]; 0.5 mg/day oral): induces
- disease progression and/or disease complication ([1]; 0.5 mg/day oral): inhibits
- fecal calprotein level ([1]; 0.5 mg/day oral): lowers
- number of open draining fistulas ([1]; 0.5 mg/day oral): reduces
- symptoms of Crohn's disease ([1]; 0.5 mg/day oral): reduces
- dependence on steroids ([1]; 1.0 mg/day oral): lowers
- C-Reactive Protein level ([1]; 1.0 mg/day oral): lowers
- clinical remission ([1]; 1.0 mg/day oral): induces and/or maintains
- clinical response ([1]; 1.0 mg/day oral): induces
- disease progression and/or disease complication ([1]; 1.0 mg/day oral): inhibits
- fecal calprotein level ([1]; 1.0 mg/day oral): lowers
- number of open draining fistulas ([1]; 1.0 mg/day oral): reduces
- symptoms of Crohn's disease ([1]; 1.0 mg/day oral): reduces
- dependence on steroids ([1]; 1.5 mg/day oral): lowers
- C-Reactive Protein level ([1]; 1.5 mg/day oral): lowers
- clinical remission ([1]; 1.5 mg/day oral): induces and/or maintains
- clinical response ([1]; 1.5 mg/day oral): induces
- disease progression and/or disease complication ([1]; 1.5 mg/day oral): inhibits
- fecal calprotein level ([1]; 1.5 mg/day oral): lowers
- number of open draining fistulas ([1]; 1.5 mg/day oral): reduces
- symptoms of Crohn's disease ([1]; 1.5 mg/day oral): reduces
- dependence on steroids ([1]; 2.0 mg/day oral): lowers
- C-Reactive Protein level ([1]; 2.0 mg/day oral): lowers
- clinical remission ([1]; 2.0 mg/day oral): induces and/or maintains
- clinical response ([1]; 2.0 mg/day oral): induces
- disease progression and/or disease complication ([1]; 2.0 mg/day oral): inhibits
- fecal calprotein level ([1]; 2.0 mg/day oral): lowers
- number of open draining fistulas ([1]; 2.0 mg/day oral): reduces
- symptoms of Crohn's disease ([1]; 2.0 mg/day oral): reduces
- time to reach steady state levels [2]: 6 to 7 days
- oral bioavailability [3]: high oral bioavailability

Source: US8598203B2 (Teva Pharmaceutical Industries, Ltd., priority 2009, dated 2013)
